The record followed here is patent EP0695746A2, “Antiviral compounds and pharmaceutical compositions” (PHARMA MAR, S.A., priority 1994, dated 1996).

For data set [1], the system named is CD-1 mice. Kind of data set: In vivo toxicity test, single injection. How it is done:
The LD₅₀ for the compound was > 150 mg/kg.

Data set [2] has as its system HIV-1 p24 core antigen. The data set is described as follows: p24 ELISA on supernatant of the cytotoxic assay wells. It is filed as cell-based. How it is done:
Secondary assays for evaluating antiviral activity included the syncytial-forming assay and p24 ELISA's. The first assay was described above. The p24 assay was performed by purchasing the p24 kit for the human immunodeficiency virus for p24 antigen assays from the Coulter Corporation, Hialeah, FL. […] The preparation of a mouse monoclonal antibody with high specificity and affinity for the viral p24 protein has allowed the development of an extremely sensitive ELISA for HIV-1 p24 core antigen.
An assay for antiviral activity to HIV-1 was started on 10-28-93 using the cytotoxic assay as described above and HIV-1 activity was observed microscopically in this sample on day 4 of the cytotoxic assay. On day six, 10 µl of supernatant fluid were removed from the cytotoxic wells and assayed for p24. The results of the cytotoxic assay, p24 assay, and syncytia assay were: […]

Data set [3] relates to HIV-1. The data set is described as follows: HIV-1 antiviral in vitro assays. It is filed as cell-based.
Data set [4] has as its system CEM-SS cells. Kind of data set: Syncytium-forming assay (Syncytia assay), toxicity in drug control wells. It is filed as cell-based. The following applies: Homo sapiens. As to the method: (§1) The assay described above for determining viral titers of HIV-1 stock virus can be modified and used to evaluate the antiviral activity of compounds. A.5.1. Plates are treated with poly-L-lysine the same as above, and CEM-SS cells are polybrene treated. A.5.2. Dilute test compound in medium to desired concentrations. A.5.3. Add 100 µl CEM-SS cells to each well so that the final cell concentration is 50,000 cells per well. A.5.4. Add 50 µl of the test compound at each respective concentration to at least two wells, or four for one replicate assay. A.5.5. Add 50 µl growth medium to drug control wells. A.5.6. Add 50 µl HIV-1 virus to test wells at a concentration that provides approximately 100 SFU of virus per well. A.5.7. Run appropriate cell and viral controls. A.5.8. Incubate plates for 3 to 5 days. A.5.9. On day 3 to 5 cover plates with clear plastic sealers and count syncytial-forming units in the test wells and viral control wells. To determine if the test compounds have antiviral activity, compare the total number of SFU in the viral control to those enumerated in the test wells.

The test system of data set [5] is HIV-1 RF. The data set is described as follows: XTT cytoprotection assay (called Cytotoxic Assay in the tables), antiviral activity. Format: cell-based.
Description: Changes were made to accommodate changes in solvent systems and drug test dilutions.
For the cytoprotection assay CEM-SS cells and HIV-1 RF strain of virus were used. Test samples were first diluted in an appropriate solvent, and 10 to 50 µl were transferred to the test plate. If the solvent was methanol or a similar solvent, the plates were allowed to evaporate. If medium was used for dilutions the plates were covered and the volume of test sample was taken into consideration when adding cells and virus. At each test concentration 50 µl of sample were added to three wells, one for toxicity tests, one for color control, and one for antiviral activity. Assuming the solvent was evaporated, 150 µl cells are added to all wells, except the control wells for medium only, so that the cell concentration per well was 5000. Then 50 µl of HIV-1 virus was added to each test well so that the M.O.I. was approximately 0.31. For toxicity tests 50 µl of medium were added to the control well. The plates were incubated in 5% CO₂ for 6 days at 37°C. After incubation, the XTT solution was added to the plates, and after 4 hours incubation at 37°C the plates are covered with clear plastic sealers. Cell viability was measured by the visible light absorbance at 450 nm and a reference wavelength of 650 nm. Data were expressed as a percentage of formazan produced in drug test wells compared to formazan produced in wells of untreated control cells.
Cells were maintained in the logarithmic growth state by subdividing cultures when the cell concentrations reach an upper limit of 1 x 10⁶ cells per ml.
For antiviral assays CEM-SS cells at a cell concentration of 5.0 x 10⁵ in serum free medium were treated with polybrene at a concentration of 1 µg/ml and incubated for 30 to 60 minutes at 37°C. Polybrene medium was removed by centrifugation, and CEM-SS cells were resuspended in growth medium. If solvents were evaporated the cell concentration was 33,500 cells per ml so that 150 µl contained 5000 cells. If medium was the dilution vehicle then the cell concentration was 50,000 so that 100 µl contained 5000 cells. The total test volume for medium, cells, and virus was 200 µl.
Store frozen at -20°C (0.1 to 0.2 ml per vial). Warm to 37°C as needed. […] PMS dilution for XTT medium: Dilute PMS stock from freezer 1:100 in PBS. Add 4% to medium. […] Formula for XTT/PMS solution for 1 plate (5 ml per plate)
Dissolve XTT in medium, add PMS/PBS. Warm to 37°C for approximately 10 to 15 minutes to obtain an homogeneous solution. Add 50 µl per plate Incubate for 4 hours. Read A(450-650) nm. […] The data was processed to convert optical density readings to a percentage of inhibition compared to CEM-SS cells that have not been infected with HIV-1 virus. C = cells D = Drug or Sample M = Medium V = Virus
% toxicity = 100 - [(((M + D + C) - M) ÷ ((M + C) - M)) * 100] [formula] % antiviral = ((M + D + C + V)-V-M)) ÷ ((M + D + C)-(V-M))) * 100 [formula]
Data set [6] has as its system CEM-SS cells. Kind of data set: XTT cytoprotection assay (Cytotoxic Assay), toxicity wells without virus. Format: cell-based, human. The settings on record: Table VI, assay date. How it is done:
This assay is a measure of the viability of human T cell lines after infection with HIV in the presence of potential antiviral compounds. The results are assessed spectrophometrically by reading optical densities after the addition of XTT to determine if the viable cells reduced the pale yellow tetrazolium reagent (XTT) to an orange formazan product. This assay can be utilized for the initial screen of large numbers of samples. For the cytoprotection assay CEM-SS cells and HIV-1 RF strain of virus were used. Test samples were first diluted in an appropriate solvent, and 10 to 50 μl were transferred to the test plate. If the solvent was methanol or a similar solvent, the plates were allowed to evaporate. If medium was used for dilutions the plates were covered and the volume of test sample was taken into consideration when adding cells and virus. At each test concentration 50 μl of sample were added to three wells, one for toxicity tests, one for color control, and one for antiviral activity. Assuming the solvent was evaporated, 150 μl cells are added to all wells, except the control wells for medium only, so that the cell concentration per well was 5000. Then 50 μl of HIV-1 virus was added to each test well so that the M.O.I. was approximately 0.31. For toxicity tests 50 μl of medium were added to the control well. The plates were incubated in 5% CO2 for 6 days at 37°C. After incubation, the XTT solution was added to the plates, and after 4 hours incubation at 37°C the plates are covered with clear plastic sealers. Cell viability was measured by the visible light absorbance at 450 nm and a reference wavelength of 650 nm. Data were expressed as a percentage of formazan produced in drug test wells compared to formazan produced in wells of untreated control cells. CEM-SS cells were maintained with growth medium RPMI 1640, 10% fetal bovine serum, 2% L-glutamine (200 mM), and 50 μg/ml gentamicin in a 5% CO2 water-saturated atmosphere. Cells were maintained in the logarithmic growth state by subdividing cultures when the cell concentrations reach an upper limit of 1 x 10^6 cells per ml. […] Polybrene medium was removed by centrifugation, and CEM-SS cells were resuspended in growth medium. If solvents were evaporated the cell concentration was 33,500 cells per ml so that 150 μl contained 5000 cells. If medium was the dilution vehicle then the cell concentration was 50,000 so that 100 μl contained 5000 cells. The total test volume for medium, cells, and virus was 200 μl. Dissolve XTT in medium, add PMS/PBS. Warm to 37°C for approximately 10 to 15 minutes to obtain an homogeneous solution. Add 50 μl per plate Incubate for 4 hours. Read A(450-650) nm. B.2.5. Data processing After the plates were read spectrophotometrically the data was transferred via modem from the laboratory to the office. The data was processed to convert optical density readings to a percentage of inhibition compared to CEM-SS cells that have not been infected with HIV-1 virus. C = cells D = Drug or Sample M = Medium V = Virus M = medium only in well V = medium + CEM-SS cells + virus in well (M + C) = medium + CEM-SS cells (M + D) = medium + drug in well (M + D + C) = medium + drug + CEM-SS cell in well (M+D+C+V) = medium + drug + CEM-SS cells + virus in well.

The subject of data set [7] is HIV-1 RF. The data set is described as follows: Syncytium-forming assay (Syncytia assay), antiviral activity. It is filed as cell-based.
Description: To determine the HIV-1 viral titers the quantitative infectivity syncytium-forming assay described by P.L. Nara and P.J. Fischinger, "Quantitative Infectivity Assay for HIV-1 and -2," Nature, 332: 469 (1988)) was used. In this assay a single infectious unit of virus infects a single cell and initiates a focal cell change such as syncytium formation. Because a single infectious unit causes a single response, a linear relationship exists between the number of cytopathic effects caused by viral infection and the first order of virus concentration. This quantitative assay can be used to determine the titers of the HIV-1 in viral stocks, neutralization tests, and antiviral assays.
The quantitative infectivity syncytium-forming assay is applied for the direct quantitation of fusigenic virus-infected cells. CEM-SS cells were used for the syncytium-forming assay. CEM-SS cell are human T4-lymphoblastoid cells of a cell line initially derived by G.E. Foley, et al., "Continuous Culture to Human Lymphoblasts from Peripheral Blood of a Child with Acute Leukemia," Cancer, 18: 522 (1965) and biologically cloned by Nara et al., supra. The cells for this assay were provided by Dr. Nara.
CEM-SS cells were maintained in a growth medium of RPMI 1640, 10% fetal bovine serum, 1% L-glutamine (200 mM) and 50 µg/ml of gentamicin. CEM-SS cells grow in suspension. The cells have been cloned for both poly-L-lysine-induced adherence to microtiter plates and virus-induced syncytial and fusogenic sensitivity following infection with either cell-free or cell-associated HIV-1 and HIV-2. It has been determined that the cells are negative for virus including human retroviruses as determined by electron microscopy and reverse transcriptase analysis.
A.4.1. Use 96-wells flat bottom tissue culture plates and score the bottoms of all wells into 4 quadrants. A.4.2. Add 50 µl/well of diluted poly-L-lysine. Prepare stock poly-L-lysine (Poly-L-lysine hydrobromide, Sigma catalog, cat. # P-1399) at 5 mg/ml and store at -20°C for future use. For the assay dilute the stock poly-L-lysine 1:100 using phosphate buffered saline (PBS). A.4.3. Incubate plates at room temperature for no less than 30 minutes. A.4.4. Remove poly-L-lysine from wells. A.4.5. Wash the plates with 100 µl/well of Dulbecco's PBS and remove the excess PBS. A.4.6. Dilute CEM-SS cells in a logarithmic state of growth to 0.5 x 10⁶ cells per ml in a serum free medium and add 1 µg/ml polybrene. Incubate the cell suspension at 37°C for 60 minutes. Centrifuge at 800 rpm for 10 minutes and decant the supernatant fluid. A.4.7. Dilute the treated CEM-SS cell suspension to 5.0 x 10⁵ cells. Add 100 µl to the test wells so that the final cell concentration is 50,000 cells per well. Make ten-fold dilutions of the viral stock. Add 50 µl to the test wells. Add 50 µl growth medium to bring the total test volume to 200 µl. On day 3 place a clear plastic film (plate sealers, Dynatech Laboratories, Inc., cat # 001-010-3501) over the microtiter wells and evaluate for syncytium forming units (SFU).
as §1, with “wells.” for “wells. To determine if the test compounds have antiviral activity, compare the total number of SFU in the viral control to those enumerated in the test wells.”

[8] abbreviates: Table VI, Syncytia Assay, 06-29-94.
Where [9] appears, read: Human immunodeficiency virus 1, Table VI, Cytotoxic Assay, assay date, read-out: EC50 (converted).
Where [10] appears, read: Homo sapiens, CEM-SS, read-out: IC50 (converted).
Setting [11] is: Human immunodeficiency virus 1, Table VI, Syncytia Assay, 06-29-94, read-out: EC50 (converted).
Where [12] appears, read: Table III, Syncytia Assay (M.O.I. = .005).

≈ marks a conversion by molar mass, not a printed value.

In data set [1], `CC1(C)CCC[C@@]2(C)[C@H](c3ccoc3)C(=O)[C@H]3O[C@@]312` (racemic) [PM-92131 (±)] returned an LD₅₀ greater than 150 mg/kg. Further, the EC50 in data set [2] (Human immunodeficiency virus 1, Table I, P24 ELISA) was 0.5 µg/mL (≈ 1.92 µM); in data set [2] (Human immunodeficiency virus 1, Table III, p24 ELISA Assay), 0.35 µg/mL (≈ 1.34 µM).

Take `CC1(C)CCC[C@]2(C)[C@H](c3ccsc3)C(=O)[C@H]3O[C@@]312` (racemic) [PM-94116 & PM-94117 (1:1)]: the “HIV-1 antiviral activity (in words)” value in data set [3] is reported as “exhibit anti-HIV-1 activity”. Further, the figures for the IC50 in data set [4] (setting [8]) and in data set [6] (setting [10]) were 11 µg/mL (≈ 39.8 µM) and 4.35 µg/mL (≈ 15.7 µM), respectively. Besides, the EC50 in data set [5] (setting [9]) was 2.15 µg/mL; in data set [7] (setting [11]), 1 µg/mL. Moreover, the SI is 2 in data set [5] (Table VI, Cytotoxic Assay) and 11 in data set [7] (setting [8]).

As for `CC1(C)CCC[C@@]2(C)[C@H](c3ccccc3)C(=O)[C@H]3O[C@@]312` (racemic) [PM-94118(±)], the IC50 is 20 µg/mL (≈ 74 µM) in data set [4] (setting [8]), 9 µg/mL (≈ 33.3 µM) in data set [6] (setting [10]) and 1.87 μg/200 μl in data set [6]. In addition, the EC50 in data set [5] (setting [9]) is 3 µg/mL; in data set [7] (setting [11]), 2 µg/mL. This compound yielded an SI in data set [7] (setting [8]) of 10.

With `CC1(C)CCC[C@]2(C)[C@@H](c3ccoc3)C(=O)[C@@H]3O[C@]312` [PM-92131 (-)], the “HIV-1 antiviral activity (in words)” value in data set [3] is “active against HIV-1”. In data set [4] (setting [12]), this compound gave an IC50 of 40 µg/mL (≈ 154 µM). Also, the EC50 in data set [7] (Human immunodeficiency virus 1, Table III, Syncytia Assay (M.O.I. = .005), read-out: EC50 (converted)) is 4 µg/mL. Besides, the SI in data set [7] (setting [12]) is 10.

Regarding `CC1(C)CCC[C@@]2(C)[C@H](c3ccsc3)C(=O)[C@H]3O[C@@]312` (racemic) [SU-0096(±)], the IC50 in data set [6] (setting [10]) is 4.5 µg/mL (≈ 16.3 µM).

Consider `CC1(C)CCC[C@@]2(C)[C@@H](c3ccsc3)C(=O)[C@@H]3O[C@]312` [PM-94117], for which the IC50 in data set [4] (setting [8]) is 15 µg/mL (≈ 54.3 µM); in data set [6] (setting [10]) it was 12.5 µg/mL (≈ 45.2 µM). Also, the EC50 in data set [7] (setting [11]) is 1.2 µg/mL. The compound also had an SI in data set [7] (setting [8]) of 13.

With `Cc1cn([C@H]2C[C@H](N=[N+]=[N-])[C@@H](CO)O2)c(=O)[nH]c1=O` [AZT, 3'-azido-3'-deoxythymidine, reference compound], the EC50 in data set [5] (Human immunodeficiency virus 1, Table V, Cytoprotection Assay, MOI 0.037, read-out: EC₅₀) is 100 nM; in data set [5] (Human immunodeficiency virus 1, Table V, Cytoprotection Assay, MOI 0.074, read-out: EC₅₀), 460 nM; in data set [5] (Human immunodeficiency virus 1, Table V, Cytoprotection Assay, MOI 0.149, read-out: EC₅₀), 1300 nM; in data set [7] (Human immunodeficiency virus 1, Table IV, Syncytia Assay, MOI 0.002, read-out: EC₅₀), 10 nM; in data set [7] (Human immunodeficiency virus 1, Table IV, Syncytia Assay, MOI 0.004, read-out: EC₅₀), 10 nM; in data set [7] (Human immunodeficiency virus 1, Table IV, Syncytia Assay, MOI 0.008, read-out: EC₅₀), 10 nM. For the same compound, the EC50 in data set [7] (Human immunodeficiency virus 1, Table IV, Syncytia Assay, MOI 0.016, read-out: EC₅₀) is 70 nM.
